Results published in ChEMBL document CHEMBL5543127, “Design, Synthesis, and Biological Evaluation of 2-Phenoxyalkylhydrazide Benzoxazole Derivatives as Quorum Sensing Inhibitors with Strong Antibiofilm Effect” (J Med Chem, 2024).
≈ marks a conversion by molar mass, not a printed value. Calls of active or inactive are those of the source. No cut-off for these calls is given here.

Experiments:
[1] = test system: Pseudomonas aeruginosa; test: Induction of anti-bacterial effect in Pseudomonas aeruginosa PAO1 assessed as synergistic effect by measuring reduction in bacterial survival in presence of ciprofloxacin at 128 microg/ml measured after 24 hrs incubation relative to control; type: functional; conditions: dose 128 µg/ml
[2] = test system: Pseudomonas aeruginosa; test: Induction of anti-bacterial effect in Pseudomonas aeruginosa PAO1 assessed as synergistic effect by measuring reduction in bacterial survival in presence of clarithromycin at 16 to 128 microg/ml measured after 24 hrs incubation; type: functional, organism-based; conditions: dose 16-128 µg/ml
[3] = test system: Pseudomonas aeruginosa; test: Induction of anti-bacterial effect in Pseudomonas aeruginosa PAO1 assessed as synergistic effect by measuring reduction in bacterial survival in presence of ciprofloxacin measured after 24 hrs incubation; type: functional, organism-based; conditions: dose 8-128 µg/ml
[4] = test system: Pseudomonas aeruginosa; test: Antibacterial activity against Pseudomonas aeruginosa 27853 at logarithmic growth phase assessed as growth inhibition at 153.6 microg/ml measured upto 25 hrs by growth curve assay; type: functional, organism-based; conditions: dose 153.6 µg/ml
[5] = test system: Pseudomonas aeruginosa; test: Induction of cell morphological change in Pseudomonas aeruginosa PAO1 at 102.4 microg/ml measured after 24 hrs by scanning electron microscopy; type: functional, organism-based; conditions: dose 102.4 µg/ml
[6] = test system: Pseudomonas aeruginosa; test: Induction of morphological changes in biofilm of Pseudomonas aeruginosa PAO1 assessed as biofilm damage at 102.4 microg/ml measured after 24 hrs by scanning electron microscopy; type: functional, organism-based; conditions: dose 102.4 µg/ml
[7] = test system: Escherichia coli; test: Anti-microbial activity against penicillin-susceptible Escherichia coli ATCC25922 incubated for 20 hrs By CLSI based micro-dilution method; type: functional
[8] = test system: Bacillus pumilus; test: Anti-microbial activity against Bacillus pumilus CMCC63202 incubated for 20 hrs By CLSI based micro-dilution method; type: functional
[9] = test system: Pseudomonas aeruginosa; test: Anti-microbial activity against Pseudomonas aeruginosa PAO1 incubated for 20 hrs By CLSI based micro-dilution method; type: functional
[10] = test system: Staphylococcus aureus; test: Anti-microbial activity against erythromycin-susceptible Staphylococcus aureus ATCC25923 incubated for 20 hrs By CLSI based micro-dilution method; type: functional
[11] = test system: Pseudomonas aeruginosa; test: In vivo anti-bacterial effect in Pseudomonas aeruginosa PAO1 infected in Kunming mouse assessed as reduction in bacterial survival at 25 mg/kg, ip measured after 1 hr incubation; type: functional, organism-based
[12] = test system: Pseudomonas aeruginosa; test: Anti-microbial activity against penicillin-susceptible Pseudomonas aeruginosa 27853 incubated for 20 hrs By CLSI based micro-dilution method; type: functional
[13] = test system: Pseudomonas aeruginosa; test: Antibiofilm activity against logarithmic growth phase Pseudomonas aeruginosa PAO1 assessed as inhibition of biofilm formation at 16 microg/ml incubated for 20 hrs by crystal violet staining based analysis; type: functional
[14] = test system: Pseudomonas aeruginosa; test: Induction of cell wall rupture in Pseudomonas aeruginosa PAO1 at 102.4 microg/ml measured after 24 hrs by scanning electron microscopy; type: functional, organism-based; conditions: dose 102.4 µg/ml
[15] = test system: Pseudomonas aeruginosa; test: Inhibition of protease in logarithmic growth phase Pseudomonas aeruginosa PAO1 assessed as inhibition rate at 102.4 microg/ml measured after 32 hrs; conditions: dose 102.4 µg/ml
[16] = Inhibition of quorum sensing system in Pseudomonas aeruginosa PAO1-lasB-gfp assessed as reduction in fluorescence intensity measured upto 12 hrs by GFP reporter strain assay; conditions: dose 32-128 µg/ml
[17] = test system: Pseudomonas aeruginosa; test: In vivo induction of anti-bacterial effect in Pseudomonas aeruginosa PAO1 infected in Kunming mouse assessed as synergistic effect by measuring reduction in bacterial survival in presence of 15 mg/kg ciprofloxacin at 5 mg/kg, ip measured after 1 hr incubation relative to ciprofloxacin alone; type: functional, organism-based
[18] = test system: Bacillus subtilis; test: Anti-microbial activity against Bacillus subtilis ATCC9372 incubated for 20 hrs By CLSI based micro-dilution method; type: functional
[19] = test system: Pseudomonas aeruginosa; test: Antibiofilm activity against logarithmic growth phase Pseudomonas aeruginosa PAO1 assessed as inhibition of biofilm formation at 32 microg/ml incubated for 20 hrs by crystal violet staining based analysis; type: functional
[20] = test system: Pseudomonas aeruginosa; test: In vivo induction of anti-bacterial effect in Pseudomonas aeruginosa PAO1 infected in Kunming mouse assessed as synergistic effect by measuring reduction in bacterial survival in presence of 15 mg/kg ciprofloxacin at 25 mg/kg, ip measured after 1 hr incubation; type: functional, organism-based
[21] = test system: Pseudomonas aeruginosa; test: Induction of anti-bacterial effect in Pseudomonas aeruginosa PAO1 assessed as synergistic effect by measuring reduction in bacterial survival in presence of clarithromycin measured after 24 hrs incubation; type: functional, organism-based; conditions: dose 8-128 µg/ml
[22] = test system: Erythrocyte; test: Hemolytic activity in mouse RBC isolated from eye ball assessed as hemolysis at 256 microg/ml incubated for 1 hr; type: toxicity, cell-based; conditions: dose 256 µg/ml
[23] = Inhibition of quorum sensing system in Pseudomonas aeruginosa PAO1-gfp assessed as reduction in fluorescence intensity at 32 to 128 microg/ml measured upto 12 hrs by GFP reporter strain assay; conditions: dose 32-128 µg/ml
[24] = test system: Pseudomonas aeruginosa; test: Antibacterial activity against Pseudomonas aeruginosa PAO1 at logarithmic growth phase assessed as growth inhibition at 153.6 microg/ml measured upto 25 hrs by growth curve assay; type: functional, organism-based; conditions: dose 153.6 µg/ml
[25] = Inhibition of quorum sensing system in Pseudomonas aeruginosa PAO1- rhlA-gfp assessed as reduction in fluorescence intensity measured upto 12 hrs by GFP reporter strain assay; conditions: dose 32-128 µg/ml
[26] = Inhibition of quorum sensing system in Pseudomonas aeruginosa PAO1 at logarithmic growth period assessed as inhibition of pyocyanin production at 102.4 microg/ml incubated for 18 hrs by pyocyanin inhibition assay; conditions: dose 102.4 µg/ml
[27] = test system: Pseudomonas aeruginosa; test: Inhibition of swarming movement of Pseudomonas aeruginosa PAO1 assessed as movement state of bacterial clusters after 24 hrs by swarming motility assay; type: functional, organism-based; conditions: dose 25.6-102.4 µg/ml
[28] = test system: Pseudomonas aeruginosa; test: Induction of anti-bacterial effect in Pseudomonas aeruginosa PAO1 assessed as synergistic effect by measuring reduction in bacterial survival in presence of ciprofloxacin at 16 to 128 microg/ml measured after 24 hrs incubation; type: functional, organism-based; conditions: dose 16-128 µg/ml
[29] = test system: Staphylococcus aureus; test: Anti-microbial activity against methicillin-resistant Staphylococcus aureus ATCC43300 incubated for 20 hrs By CLSI based micro-dilution method; type: functional
[30] = Inhibition of quorum sensing system in Pseudomonas aeruginosa PAO1-pqsA-gfp assessed as reduction in fluorescence intensity measured upto 12 hrs by GFP reporter strain assay; conditions: dose 32-128 µg/ml
[31] = test system: Pseudomonas aeruginosa; test: Anti-bacterial effect in Pseudomonas aeruginosa PAO1 assessed as reduction in bacterial survival by measuring inhibition rate at 0.4 microg/ml measured after 24 hrs incubation relative to control; type: functional

O=C(COc1ccc(F)cc1)NNc1nc2ccccc2o1
Activity [1]: >90%
Activity [2]: Active
Activity [3]: Dose-Dependent Effect
Activity [4]: inactive
Activity [5]: inactive
Activity [6]: Active
MIC [7]: > 512 mg/L
MIC [8]: > 512 mg/L
MIC [9]: 512 mg/L (≈ 1700 µM)
MIC [10]: > 512 mg/L
Activity [11]: inactive
MIC [12]: 512 mg/L (≈ 1700 µM)
inhibition at 16 µg/mL [13]: > 50%
Activity [14]: inactive
inhibition [15]: 10%
inhibition [16]: Dose-Dependent Effect
Activity [17]: Active
MIC [18]: 512 mg/L (≈ 1700 µM)
inhibition at 32 µg/mL [19]: > 76.6%
Activity [20]: Active
Activity [21]: Dose-Dependent Effect
Activity [22]: Non-Toxic
inhibition [23]: Dose-Dependent Effect
Activity [24]: inactive
inhibition [25]: Dose-Dependent Effect
inhibition [26]: 43.6%
inhibition [27]: Dose-Dependent Effect
Activity [28]: Active
MIC [29]: > 512 mg/L
inhibition [30]: Dose-Dependent Effect

O=C(O)c1cn(C2CC2)c2cc(N3CCNCC3)c(F)cc2c1=O [CIPROFLOXACIN]
inhibition at 0.4 µg/mL [31]: 42%
